The target of one series is SERCA2 (Homo sapiens, UniProt P16615). The series is described as follows: ATPase activity of SERCA2 versus concentration. In kind it is biochemical. The procedure:
(§1) For example, the concentration of lead compound Compound 1 that suppressed ventricular tachycardia is approximately 0.5% of compound K201 (JTV519) that was previously used to inhibit arrhythmias in a similar mouse model. […] Therefore, advantages exist with regard to reduction of dosage response time compared to previously used drugs to inhibit arrhythmias. […] While Compound 1 inhibits sparks and arrhythmias at 35 nM, the ATPase activity of SERCA2 has been measured versus concentration of Compound 1. At concentrations of 1 μM, 10 μM and 50 μM, ATPase activity was unaffected (data not shown). The data shown in FIGS. 2 and 3 have been repeated several times with different animals (e.g., rabbit model).

The nature of series [1]: in vitro. To be noted: human.
The nature of series [2]: Effect on the length of the AP. The procedure:
as §1

The subject of series [3] is RyR2. Nature of the series: Ca2+ spark frequency assay in ventricular myocytes from CPVT mouse model (R176Q/+). In kind it is cell-based. To be noted: versus tetracaine. The source says:
(§2) Therein, calcium spark frequency data are shown in the presence of increasing amounts of added compound. IC50 is a measure of the effectiveness of a substance in inhibiting a particular biological process or function. Calcium spark frequency is plotted along the y-axis and compound concentration is plotted along the x-axis. Example dose-response curve 120 is included to illustrate the inhibitory effect of Compound 1 on spark frequency for the cells derived from a CPVT mouse model. The quantitative value of IC50 can be determined by identifying the concentration where half of the maximum biological response, such as the calcium spark response, is inhibited. For example, at lower compound concentrations dose-response curve 110 has a higher level of calcium spark frequency, whereas at higher compound concentrations, a transition of the calcium spark frequency to a lower level is observed. The concentration at which the sigmoidal curve of data response curve 120 has a spark frequency reduced by half corresponds to the IC50. […] Thus, as one example, a method for treating cardiac arrhythmias may include administering an amount of Compound 1 to a subject afflicted with heart arrhythmias. The administration may be performed via known routes, such as oral, epidermal, subcutaneous, intravenous, peritoneal, etc.
(§3) Functional Assays in CPVT mouse cells may include isolating ventricular cardiomyocytes from adult (2-3 month-old) R176Q/+ mice or WT littermates. In one exemplary assay, myocytes were loaded with 2 μM Fluo-4-AM in a normal Tyrode solution containing 1.8 mM Ca2+ for 30 minutes at room temperature before washing the cells with Tyrode solution for 15 minutes for de-esterification and transfering to a chamber equipped with parallel platinum electrodes.
(§4) After baseline measurements were completed, myocytes were exposed to the test lead compound. After a 5 min superfusion period, Ca2+ sparks were again measured in the same cell in the presence of the drug compound. The frequency of Ca2+ sparks (CaSpF) were calculated, e.g., using SparkMaster (Picht, E., et al., SparkMaster: automated calcium spark analysis with ImageJ. Am J Physiol Cell Physiol, 2007. 293(3): p. C1073-81), and applications before and after inclusion of the test compound were compared. A detailed dose-response relationship and measurements of inhibition of arrhythmogenic Ca2+ waves in ventricular myocytes from a CPVT mouse model (R176Q/+) were then completed on those compounds showing a significant decrease in spark frequency at 0.5 μM. At the conclusion of these experiments, the Ca2+ spark inhibition rate is calculated as a function of concentration for each compound tested, and an IC50 value determined for each drug compound. […] FIG. 4 compares an exemplary confocal line-scan image of Ca2+ spark recordings from ventricular myocytes isolated from wild-type (WT) mice at 410 relative to those isolated from S2814D mice as shown at 420.
(§5) The above-discussed Ca2+ spark assay was used with R176Q/+ myocytes as an initial screening assay to test the ability of new compounds to inhibit spontaneous pathological SR Ca2+ release in ventricular myocytes.

In series [4] the target is T1, RyR2 (Mus musculus, UniProt E9Q401).
T1 construct: other: cells derived from a CPVT mouse model (R176Q/+ ventricular myocyte)
The series is described as above. The format is cell-based. To be noted: cells derived from a CPVT mouse model (R176Q/+ ventricular myocytes); read-out: IC50 (inhibition of calcium spark frequency).
Excerpt: as §2, §3, §4, §5

Another series has as its system R176Q/+ mice. The series is described as follows: Arrhythmias (ventricular tachycardia) after cardiac pacing / programmed electrical stimulation in CPVT mice, whole animal level. The format is in vivo, mouse. The source says:
Ventricular tachycardia (or VT) is a type of tachycardia, or a rapid heart beat that arises from improper electrical activity of the heart that presents as a rapid heart rhythm. VT is associated with the bottom chambers of the heart, called the ventricles, which are pumping chambers of the heart. […] Therein, electrical signals for four different CPVT mice are shown. Wild type (or WT) signal 210 is provided for reference to illustrate a sinus rhythm (e.g., L2-ECG, lead 2 of the surface ECG). Atrial and ventricular intracardiac electrocardiogram signals are also provided for reference.

Series [5] in a line: in vitro. The note with it: human. This is another data set of the same source.
A short description of another series: Cytotoxicity in HEK293. To be noted: human, HEK293 cells.
For the next series, the target named is RyR (Oryctolagus cuniculus, UniProt P11716). The note with it: literature value; cited from earlier work.
A short description of a further series: Cytotoxicity in HepG2. The note with it: human, HepG2 cells.

Bounds are passed on as bounds.

A word on the IC50: it is the concentration needed to halve the response being measured.

Chain of SERCA2 (P16615 whole entry, species assumed): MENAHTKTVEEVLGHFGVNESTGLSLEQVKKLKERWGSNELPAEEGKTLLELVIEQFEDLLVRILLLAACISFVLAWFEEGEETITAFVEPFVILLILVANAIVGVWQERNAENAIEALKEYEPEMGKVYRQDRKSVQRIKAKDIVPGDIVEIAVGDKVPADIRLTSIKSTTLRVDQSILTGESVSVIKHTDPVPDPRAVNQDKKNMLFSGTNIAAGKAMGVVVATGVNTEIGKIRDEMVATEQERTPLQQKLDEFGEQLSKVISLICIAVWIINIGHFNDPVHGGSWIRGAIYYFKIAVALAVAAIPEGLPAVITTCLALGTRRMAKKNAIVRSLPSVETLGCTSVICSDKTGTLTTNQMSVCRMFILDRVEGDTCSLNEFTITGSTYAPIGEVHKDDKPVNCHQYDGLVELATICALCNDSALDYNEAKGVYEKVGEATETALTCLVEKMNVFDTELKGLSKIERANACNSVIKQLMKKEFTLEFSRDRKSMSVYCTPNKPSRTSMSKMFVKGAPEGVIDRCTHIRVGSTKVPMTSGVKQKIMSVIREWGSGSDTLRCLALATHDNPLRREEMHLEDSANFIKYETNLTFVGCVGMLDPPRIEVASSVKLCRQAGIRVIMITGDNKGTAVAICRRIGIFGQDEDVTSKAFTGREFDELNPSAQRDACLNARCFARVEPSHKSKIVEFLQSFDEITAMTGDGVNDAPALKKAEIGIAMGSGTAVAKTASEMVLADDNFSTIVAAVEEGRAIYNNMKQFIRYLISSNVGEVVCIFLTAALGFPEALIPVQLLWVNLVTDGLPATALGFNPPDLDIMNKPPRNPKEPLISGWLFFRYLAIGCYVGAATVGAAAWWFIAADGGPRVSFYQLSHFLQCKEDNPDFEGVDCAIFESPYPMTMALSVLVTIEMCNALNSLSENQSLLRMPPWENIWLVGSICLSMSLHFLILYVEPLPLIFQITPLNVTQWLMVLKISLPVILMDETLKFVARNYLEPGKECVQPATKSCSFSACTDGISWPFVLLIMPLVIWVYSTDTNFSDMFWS

For `CCCCNc1ccc(C(=O)OCCN(CC)CC)c(OC)c1` [Compound 1], the “ATPase activity of SERCA2” value on SERCA2 (1 μM), at SERCA2 (10 μM) and at SERCA2 (50 μM) was “unaffected” in each case. Moreover, the IC50 in “in vitro [1]” is greater than 50 µM; on RyR2 [4], 0.035 µM; in “in vitro [5]”, greater than 50 µM. Besides, the “effect on the length of the AP” value in series [2] was “No indication has been observed that Compound 1 has any effect on the length of the AP”. For the same compound, in the series with RyR2 [3], the “potency relative to the parent molecule tetracaine (inhibiting RyR2 activity / CRC)” value is roughly 3000 times. The “level at which arrhythmias are decreased in the whole animal” value in the series with R176Q/+ mice (CPVT mice, whole animal level) was 2.5 µg/kg. In addition, the “concentration with antiarrhythmic activity, as share of that of flecainide” value in the series with R176Q/+ mice (CPVT mouse model, versus flecainide) amounted to 0.1%. For the same compound, in the series on R176Q/+ mice (R176Q/+ mice, cardiac pacing, ECG (FIG. 2)), the “arrhythmic development following pacing” value is on record as “protected from arrhythmic development following pacing”. In the series with R176Q/+ mice (injected in the tail of the mouse), the “time to inhibition of arrhythmias” value was no more than 10 min. Besides, the “concentration that suppressed ventricular tachycardia, as share of that of K201 (JTV519)” value in the series on R176Q/+ mice (versus K201 in a similar mouse model) was “approximately 0.5%”.
`CCCCNc1ccc(C(=O)OCCN(C)C)cc1.Cl` [Tetracaine]: the concentration for half-maximal inhibition (IC50) in “Cytotoxicity in HEK293” and in “Cytotoxicity in HepG2” was greater than 50 µM in each case. Further, the “concentration at which the RyR is inhibited” value on RyR is roughly 150 µM.
As to `CCCCNc1cc(OC)c(C(=O)OCCN(CC)CC)cc1Cl` [Compound 2], the IC50 in “in vitro [1]” was greater than 50 µM; at RyR2 [4], 0.011 µM; in “in vitro [5]” it was greater than 50 µM.
For `CCCCNc1ccc(C(=O)O)cc1N(CCCC)CCCC` [Compound 3], the half-inhibitory concentration (IC50) is greater than 50 µM in the series “in vitro [1]”, 0.5 µM on RyR2 [4] and greater than 50 µM in “in vitro [5]”.
`CCCCNc1ccc(OC(C)=O)cc1C` [Compound 4]: at RyR2 [4], the half-maximal inhibitory concentration (IC50) is 0.63 µM.
As for `CCCCNc1ccc(C(=O)OCCNCC)cc1C` [Compound 5], the IC50 in the series “in vitro [1]” is greater than 50 µM; at RyR2 [4] it was 0.8 µM; in the series “in vitro [5]”, greater than 50 µM.
